Non-standard residues stand in square brackets, D forms with d. Residues, ends and D or L forms follow the SMILES beside them. *: point of attachment. Asu = N[C@@H](CCCCCC(=O)O)C(=O)O; NH(2-NH2-phenyl) = Nc1ccccc1N*
What was measured:
recombinant human HDAC1 = recombinant human HDAC1 (Homo sapiens, UniProt Q13547); test: Inhibition of recombinant HDAC1; format: biochemical
recombinant human HDAC3 = recombinant human HDAC3 (Homo sapiens, UniProt O15379); test: Inhibition of recombinant HDAC3; format: biochemical
recombinant human HDAC3, sequence (O15379 whole entry): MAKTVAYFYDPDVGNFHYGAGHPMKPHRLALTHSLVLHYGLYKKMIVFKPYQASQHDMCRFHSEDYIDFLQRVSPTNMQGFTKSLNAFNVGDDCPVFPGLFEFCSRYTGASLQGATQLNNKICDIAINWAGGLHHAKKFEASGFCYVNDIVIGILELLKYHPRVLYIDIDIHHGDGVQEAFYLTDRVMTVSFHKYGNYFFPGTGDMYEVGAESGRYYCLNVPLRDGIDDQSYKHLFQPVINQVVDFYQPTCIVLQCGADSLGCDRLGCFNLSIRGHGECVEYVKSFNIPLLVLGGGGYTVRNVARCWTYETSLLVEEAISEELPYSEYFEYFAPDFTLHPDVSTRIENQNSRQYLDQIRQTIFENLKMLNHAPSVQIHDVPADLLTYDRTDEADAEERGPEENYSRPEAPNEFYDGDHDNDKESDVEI
recombinant human HDAC3, sequence (Q9Y618 395-489 partner limits assumed): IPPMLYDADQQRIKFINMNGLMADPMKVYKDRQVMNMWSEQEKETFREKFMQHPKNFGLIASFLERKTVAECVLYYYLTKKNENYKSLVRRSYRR

[1] = system: human lymphoblastoid cell line (GM15850); test: Acetylation levels of endogenous histone H3 by western blot; format: cell-based; conditions: 20 µM, 48 h incubation, GM15850 cells

recombinant human HDAC1, sequence (Q13547 whole entry): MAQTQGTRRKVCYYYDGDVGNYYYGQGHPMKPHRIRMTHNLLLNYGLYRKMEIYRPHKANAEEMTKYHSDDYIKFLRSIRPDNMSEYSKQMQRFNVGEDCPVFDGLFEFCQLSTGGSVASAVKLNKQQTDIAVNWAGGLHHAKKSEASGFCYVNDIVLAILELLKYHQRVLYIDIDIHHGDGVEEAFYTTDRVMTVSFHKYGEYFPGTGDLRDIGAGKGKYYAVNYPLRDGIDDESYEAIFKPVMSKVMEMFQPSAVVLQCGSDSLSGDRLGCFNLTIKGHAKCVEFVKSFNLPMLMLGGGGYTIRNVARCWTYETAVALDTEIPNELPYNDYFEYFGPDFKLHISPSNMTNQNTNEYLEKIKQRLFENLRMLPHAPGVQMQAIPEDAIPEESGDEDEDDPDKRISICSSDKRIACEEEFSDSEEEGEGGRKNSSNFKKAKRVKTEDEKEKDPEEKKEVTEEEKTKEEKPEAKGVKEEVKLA

## N=C(N)NCCC[C@H](N)C(=O)NCC(=O)N[C@@H](CCCCCC(=O)Nc1ccccc1N)C(=O)NCC(=O)O [compound 13] (H-RG[Asu](NH(2-NH2-phenyl))G-OH; N-terminus and C-terminus assumed)
Recombinant human HDAC1
  IC50: 532 µM
Recombinant human HDAC3
  IC50: 69.3 µM
[1]
  effect on acetylation of endogenous histone H3: no effect

## Cc1ccc(C(=O)N[C@@H](CCCNC(=N)N)C(=O)NCCC(=O)Nc2ccccc2N)cc1 [compound 16]
[1]
  effect on acetylation of endogenous histone H3: no such effect

## N=C(N)NCCC[C@H](N)C(=O)NCC(=O)N[C@@H](CCCCCC(=O)Nc1ccccc1N)C(=O)Nc1ccccc1N [compound 10]
[1]
  effect on acetylation of endogenous histone H3: relatively stronger effects

## Cc1ccc(C(=O)NCC(=O)NCCC(=O)Nc2ccccc2N)cc1 [compound 15]
[1]
  effect on acetylation of endogenous histone H3: relatively strong effect
